Data as given in patent publication US20120296090A1, “Drug Repositioning Methods For Targeting Breast Tumor Initiating Cells” (The Methodist Hospital Research Institute, priority 2011, published 2012).
Entries after “also recorded” stand apart in the source; their conditions may differ.

Key:
[1] = test system: BT549; experiment: mammosphere-forming efficiency (MSFE) assay; type: cell-based, human; conditions: 10 nM and 1 μM, after a single treatment dose
Method: (§1) The bioinformatics systems-based methods described herein also identified a further subset of ten drugs that were subsequently tested in vitro and in vivo for their ability to inhibit breast TICs. These in silico results were first confirmed by in vitro studies that evaluated the effects of these repositioned drugs on mammosphere-forming efficiency. […] Next, limiting dilution transplantation assays were performed, whereupon SUM159 cells were treated with […] overnight and then transplanted the next day 200,000 cells/mouse (single sided).

[2] = test system: SUM159; experiment: mammosphere-forming efficiency (MSFE) assay; type: cell-based, human; conditions: 10 nM and 1 μM, after a single treatment dose
Method: as §1

[3] = test system: SUM159 cells; experiment: limiting dilution transplantation assay; type: in vivo; conditions: SUM159 cells treated overnight, transplanted 200,000 cells/mouse; vehicle control 9 of 12
Method: as §1

[4] = test system: human breast cancer TICs; experiment: mammosphere formation efficiency assay on triple-negative cancer cell lines; type: cell-based; conditions: at least two triple-negative cancer cell lines
Excerpt: (§2) Thus, the proposed drug-repositioning platform consists of CSB model, bioinformatics software, and drug information databases. Among the twenty-one drug candidates identified in this study, three drugs, i.e., sunitinib (Sutent®, Pfizer Oncology, New York, N.Y., USA), dasatinib (Sprycel®, Bristol-Myers Squibb, Princeton, N.J., USA) and chloroquine (Aralen®, sanofi-aventis, US, LLC, Bridgewater, N.J., USA) were further analyzed for their in vitro and in vivo effects on human breast cancer TICs, and in murine xenograft models. […] As a result of this finding, dasatinib is now currently in Phase II clinical trials for advanced breast cancer to assess the efficacy of this drug for inhibiting TICs.

[5] = test system: human breast cancer TICs; experiment: dilute transplantation assay in murine xenograft models; type: in vivo
Excerpt: as §2

[6] = test system: breast TICs; experiment: inhibition of breast TICs in vitro and in vivo (FIG. 3, human breast cancer xenograft mammosphere formation efficiency); type: cell-based
[7] = test system: MCF7; conditions: cited from earlier work; for cell growth: considered dosages (<10 μM); for cell death / apoptosis: higher dosages, MCF7
[8] = test system: H226, human non-small cell lung cancer (NSCLC); experiment: Cell proliferation assay (CellTiter 96 AQueous One Solution); type: cell-based
Method: (§3) Five tumor cell lines were used in these studies: HT-29, human colorectal adenocarcinoma; H69, human small cell lung cancer (SCLC); H226, human non-small cell lung cancer (NSCLC) (squamous carcinoma); LNCaP, human prostate carcinoma; and U87-luc glioblastoma cell line. H69, H226, and LNCaP cells were grown in American Type Culture Collection (ATCC)-formulated RPMI-1640 Medium (ATCC, cat#30-2001; […]) supplemented with 10% fetal bovine serum (FBS) and 1% penicillin/streptomycin (Invitrogen, Carlsbad, Calif., USA). HT-29 cells were cultured in ATCC-formulated McCoy's 5a Medium (Modified) (ATCC, cat#30-2007). […]
(§4) Cell proliferation was analyzed using CellTiter 96 AQueous One Solution Cell Proliferation Assay (Promega, Madison, Wis., USA) according to the manufacturer's instructions. […] After 3-hrs' incubation, absorbance at 490 nm was measured using the FLUOstar™ Omega Microplate Reader (BMG LABTECH, Cary, N.C., USA). Background absorbance (490 nm) was corrected by subtracting the average 490 nm absorbance of the “no cell” control wells from absorbance values obtained for each of the test wells. The proliferative ratio (% surviving cells) in each sample was calculated by dividing the corrected absorbance value of treated cells by that of control cells with no drug treatment. The results were expressed as mean with standard errors from two independent studies.

[9] = test system: HT-29, human colorectal adenocarcinoma; experiment: as above; type: cell-based; conditions: colorectal cancer cell line HT-29; 48 hours of treatment
Method: as §3, §4

Row | Compound | cell growth [7] | cell death / apoptosis [7] | other results
1 | CCN(CC)CCCC(C)Nc1ccnc2cc(Cl)ccc12 (stereo not shown) [chloroquine] |  |  | MSFE (mammosphere-forming efficiency) [1]: dramatic reduction; MSFE (mammosphere-forming efficiency) [2]: dramatic reduction; tumor initiation rate (xenografts growing within 10 weeks) [3]: 1 of 12; anti-TICs effects (mammosphere formation efficiency assay) [4]: anti-TICs effects; anti-cancer effects in animal models (dilute transplantation assay) [5]: anti-cancer effects; inhibiting breast TICs [6]: effective in inhibiting breast TICs
2 | C[C@]12CC[C@@H]3c4ccc(O)cc4C[C@@H](CCCCCCCCC[S+]([O-])CCCC(F)(F)C(F)(F)F)[C@H]3[C@@H]1CC[C@@H]2O (stereo partly shown) [fulvestrant] | significantly inhibited cell growth | does not induce any cell death; also recorded: did not induce the cell death | 
3 | COc1cc2ncnc(Nc3ccc(F)c(Cl)c3)c2cc1OCCCN1CCOCC1 [gefitinib] |  |  | effect on cell proliferation [8]: positive effects; effect on cell proliferation [9]: positive effects
4 | CC(=O)O[C@H]1C(=O)[C@@]2(C)[C@H]([C@H](OC(=O)c3ccccc3)[C@]3(O)C[C@H](OC(=O)[C@H](O)[C@@H](NC(=O)c4ccccc4)c4ccccc4)C(C)=C1C3(C)C)[C@]1(OC(C)=O)CO[C@@H]1C[C@@H]2O [paclitaxel] | significantly inhibited cell growth | induce apoptosis at higher dosages; also recorded: some experiments also cause the cell death | 
5 | O=C(c1ccc(OCCN2CCCCC2)cc1)c1c(-c2ccc(O)cc2)sc2cc(O)ccc12 [raloxifene] | significantly inhibited cell growth | induce apoptosis at higher dosages; also recorded: induced cell death at higher dosages | 
6 | CC/C(=C(\c1ccccc1)c1ccc(OCCN(C)C)cc1)c1ccccc1 [tamoxifen] | significantly inhibited cell growth | induce apoptosis at higher dosages; also recorded: induced cell death at higher dosages | 
